SMILES strings stand for the structures.

By IC50 is commonly meant the concentration that gives 50% inhibition. Read a high IC50 as weaker potency in that assay.

For one experiment, the target named is T1, PARP1 (Homo sapiens, UniProt P09874).
T1 construct: purchased TREVIGEN
The experiment is described as follows: PARP-1 enzymatic experiment (HT Universal Chemiluminescent PARP Assay kit). To be noted: chemiluminescence. Type of experiment: biochemical. The method, then: Experimental Example 1: PARP-1 Enzymatic Experiment
Experimental materials: test compounds; HT Universal Chemiluminescent PARP Assay kit (purchased from TREVIGEN); PBS (purchased from Wisent); Triton X-100 (purchased from Macklin); Envision multi-marker analyzer (PerkinElmer).
(I) Preparation of Reagents:
• 1. Washing solution: Triton X-100 was added to 1-fold PBS, and the final concentration of Triton X-100 was 0.1%. • 2. 1-fold PARP buffer: the 20-fold PARP buffer in the kit was subjected to 20-fold dilution with water to prepare a 1-fold PARP buffer. This buffer was used to prepare the compound, enzyme solution and substrate solution. • 3. 1-fold Strep-Diluent solution: the 10-fold Strep-diluent in the kit was subjected to 10-fold dilution with water to prepare a 1-fold Strep-diluent solution.
(II) Preparation of Test Compounds:
Test compounds were serially 5-fold diluted to the 8th concentration with a multichannel pipette, i.e. from 200 μM to 2.56 nM, with the DMSO concentration being 100%. 2 μL of each of the inhibitors at various concentration gradients was added to a compound intermediate plate, and 38 μL of the 1-fold PARP buffer was then added; the two were mixed well for use, and the DMSO concentration was 5%.
(III) Experimental Method:
• a) The 1-fold PARP buffer was added to a test plate at 50 μL per well and incubated at 25° C. for 30 min. • b) After the incubation was completed, the liquid in the test plate was discarded, and each of the compounds at various concentration gradients was pipetted from the compound intermediate plate and added into the test plate at 10 μL per well. A duplicate-well experiment was performed. • c) The test plate was added with the enzyme solution (0.5 IU) at 15 μL per well. The compound and enzyme were incubated together at 25° C. for 10 min. • d) After the incubation was completed, 25 μL of the 1-fold PARP Cocktail (comprising 2.5 μL of 10-fold PARP Cocktail, 2.5 μL of 10-fold Activated DNA and 20 μL of 1-fold PARP buffer) was added to each well of the test plate. The test plate was incubated at 25° C. for 1 h. The final concentration of the compound was 2 μM to 0.0256 nM, and the DMSO concentration was […]. • e) After the incubation was completed, the test plate was washed twice with 200 μL of washing solution per well and then washed twice with 200 μL of PBS per well. • f) Strep-HRP in the kit was subjected to 500-fold dilution with the 1-fold Strep-Diluent solution, added to the test plate at 50 μL per well, and then incubated at 25° C. for 1 h. • g) After the incubation was completed, the test plate was washed twice with 200 μL of washing solution per well and then washed twice with 200 μL of PBS per well.
PeroxyGlow A and B in the kit were mixed at ratio of 1:1, and the mixed solution was added to the test plate at 100 μL per well. Chemiluminescence was immediately read using a PerkinElmer Envision multi-marker analyzer with an integration time of 0.5 s.
Data analysis: the original data was converted to inhibition using the equation (sample−Min)/(Max−Min)×[…], and the IC50 value was then curve filled using four parameters (obtained from the “log(inhibitor) vs. response-variable slope” model in GraphPad Prism).

Experiment [1] deals with BRCA1-mutated MDA-MB-436 cells. The experiment is described as follows: Anti-proliferation experiment on MDA-MB-436 CTG cells. The experiment is classed as cell-based, human. To be noted: 7 days incubation, CellTiter-Glo. How it is done:
Experimental Example 2: Anti-Proliferation Experiment on MDA-MB-436 CTG Cells
Experimental materials: test compounds; RPMI-1640 medium; fetal bovine serum; penicillin/streptomycin antibiotic; MDA-MB-436 cell line; Envision multi-marker analyzer (PerkinElmer).
MDA-MB-436 cells were seeded in a white 96-well plate by adding 80 μL of cell suspension (containing 3000 MDA-MB-436 cells) to each well. The cell plate was incubated in a CO2 incubator overnight.
Test compounds were serially 5-fold diluted to the 8th concentration with a multichannel pipette, i.e. from 2 mM to 26 nM, and a duplicate well experiment was performed. 78 μL of medium was added to a intermediate plate, 2 μL of each of serially diluted compounds was transferred to corresponding wells of the intermediate plate, and after mixing, the mixture was transferred to the cell plate at 20 μL per well. The cell plate was incubated in a CO2 incubator for 7 days. Another cell plate was provided for reading signal values on the day of compound addition and these signal values were used as Max values in data analysis. Promega CellTiter-Glo was added to this cell plate at 25 μL per well and the luminescence signals were stabilized by incubation for 10 min at room temperature. Readings were taken using a PerkinElmer Envision multi-marker analyzer.
Promega CellTiter-Glo was added to the cell plate at 25 μL per well and the luminescence signals were stabilized by incubation for 10 min at room temperature. Readings were taken using a PerkinElmer Envision multi-marker analyzer.
2. Data analysis: the original data was converted to inhibition using the equation (sample−Min)/(Max−Min)×100%, and the IC50 value was then curve fitted using four parameters (obtained from the “log(inhibitor) vs. response-variable slope” model in GraphPad Prism). Table 2 provides the inhibitory activity of the compounds disclosed herein against MDA-MB-436 cell proliferation.
(Cellular ATP, detected with luciferase, serves as a proxy for viable cell number.)

[2] abbreviates: Homo sapiens, MDA-MB-436, 168 h.

T1 sequence (P09874 whole entry): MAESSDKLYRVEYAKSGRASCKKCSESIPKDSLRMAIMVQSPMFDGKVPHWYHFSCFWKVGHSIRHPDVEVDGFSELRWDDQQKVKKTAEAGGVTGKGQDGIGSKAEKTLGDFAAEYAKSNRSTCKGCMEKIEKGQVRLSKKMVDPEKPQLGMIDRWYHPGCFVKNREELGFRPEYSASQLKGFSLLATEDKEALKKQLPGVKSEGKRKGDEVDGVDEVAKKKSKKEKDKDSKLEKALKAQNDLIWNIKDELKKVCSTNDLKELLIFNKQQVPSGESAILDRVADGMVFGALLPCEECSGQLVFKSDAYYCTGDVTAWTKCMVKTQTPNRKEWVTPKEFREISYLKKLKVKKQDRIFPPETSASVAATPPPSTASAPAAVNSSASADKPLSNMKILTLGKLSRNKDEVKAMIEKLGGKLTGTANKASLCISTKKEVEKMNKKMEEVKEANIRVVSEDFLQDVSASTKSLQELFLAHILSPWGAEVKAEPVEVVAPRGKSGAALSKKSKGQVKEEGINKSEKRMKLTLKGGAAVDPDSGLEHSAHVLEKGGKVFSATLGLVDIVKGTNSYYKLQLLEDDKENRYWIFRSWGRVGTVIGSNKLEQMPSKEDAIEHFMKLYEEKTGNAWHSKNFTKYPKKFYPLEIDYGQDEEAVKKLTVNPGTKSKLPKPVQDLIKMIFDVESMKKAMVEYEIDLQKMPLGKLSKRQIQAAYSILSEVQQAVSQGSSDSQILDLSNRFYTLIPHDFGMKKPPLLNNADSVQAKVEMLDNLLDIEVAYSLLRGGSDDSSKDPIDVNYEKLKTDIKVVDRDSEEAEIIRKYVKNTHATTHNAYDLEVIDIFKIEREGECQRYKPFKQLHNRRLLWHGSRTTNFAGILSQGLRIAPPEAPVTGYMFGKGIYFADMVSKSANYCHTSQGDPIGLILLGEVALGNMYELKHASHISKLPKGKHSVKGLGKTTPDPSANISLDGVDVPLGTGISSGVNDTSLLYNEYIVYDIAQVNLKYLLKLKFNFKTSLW

With `CC1(c2ccc(-c3[nH]c4cc(F)cc5c4c3CONC5=O)cc2)CCCN1` (stereo not shown) [Example 25_A], the IC50 against PARP1 stood at 2.3 nM; in experiment [1] (setting [2]) it was 12.3 nM.
Consider `O=C1NOCc2c(-c3ccc(C4CCCN4)cc3)[nH]c3cc(F)cc1c23` (single isomer, unassigned) [Example 24_A], for which the results for the IC50 (at PARP1; in experiment [1]) were 2 nM and 9.6 nM, respectively.
Take `CC1(c2ccc(-c3[nH]c4cccc5c4c3CONC5=O)cc2)CCCN1` (stereo not shown) [Example 6_A]: the IC50 came to 2.8 nM against PARP1 and 16.9 nM in experiment [1] (setting [2]).
The corresponding values for `O=C1NOCc2c(-c3ccc(C4CCCN4)c(F)c3)[nH]c3cccc1c23` (stereo not shown) [Example 11_A] are 3.6 nM and 70.2 nM.
On to `CC1(c2ccc(-c3[nH]c4cc(F)cc5c4c3CONC5=O)cc2F)CCCN1` (single isomer, unassigned) [Example 26_A], for which the IC50 on PARP1 was 3.4 nM; in experiment [1], 8.4 nM.

These data come from patent US20220144850A1, “INDOLO HEPTAMYL OXIME ANALOGUE AS PARP INHIBITOR” (Chia Tai Tianqing Pharmaceutical Group Co., Ltd., priority 2019, published 2022).
